Earlier results, collected in patent US20140178367A1, “Methods of Treating Inflammatory Diseases by Targeting the Chemoattractant Cytokine Receptor 2 (CCR2) or Chemokine (C-C motif) Ligand 2 (CCL2)” (THE Brigham and Women's Hospital, Inc., priority 2011, published 2014).

System: patients with ALS

For `Nc1nc2ccc(OC(F)(F)F)cc2s1` [riluzole], the prolongs life is listed as “only a few months”.
